One data set in a line: in vitro. Format: cell-based. Particulars: human; concentration that reduced viability of 293T-ACE2 cells by 50%; 3 days. On the procedure:
The CellTiter-Glo® Luminescent Cell Viability Assay (Promega, Cat. # G7570 ) was used to determine the cytotoxicity of the aloperine derivatives. 293T-ACE2 cells were cultured in the presence of various concentrations of the compounds for 3 days. The cytotoxicity of the compounds was determined by following the protocol provided by the manufacturer. The 50% cytotoxic concentration (CC50) was defined as the concentration that caused a 50% reduction in cell viability.

For the next data set, the target named is T1, cathepsin B (Homo sapiens, UniProt P07858).
T1 construct: purchased BPS bioscience 79590
The data set can be described thus: Cathepsin B inhibitor assay kit (BPS bioscience). The data set is classed as biochemical. The settings on record: for Inhibitory activity against cathepsin B: tested at 20 µM, duplicated experiment.

The target in a further data set is T2, cathepsin L (Homo sapiens, UniProt P07711).
T2 construct: purchased BPS bioscience
As to the kind of experiment: Cathepsin L inhibitor assay kit (BPS bioscience). Format: biochemical. The settings on record: tested at 20 µM, duplicated experiment.

Data set [1] deals with PA/Puerto Rico/8/1934 Influenza A Virus (PR8). The settings on record: cited from earlier work.
Data set [2] relates to HIV-1NL4-3-nanoluc-sec. The settings on record: previously described; ref [19],[20],[21],[22]; cited from earlier work.
In data set [3] the test system is PA/Puerto Rico/8/1934 Influenza A Virus (PR8). The data set can be described thus: microbe, parasite or virus in culture. The data set is classed as cell-based. The settings on record: new compound 9, no reference given.
In data set [4] the test system is HIV-1NL4-3-nanoluc-sec. The data set is classed as cell-based. Particulars: new compound 9, no reference given; Inac = CC50/IC50 ratio < 5.
Data set [5] relates to Delta spike-pseudotyped virus. The data set can be described thus: microbe, parasite or virus in culture. Particulars: 293T-ACE2 cells. Format: cell-based.
The test system of data set [6] is Omicron BA.2 spike-pseudotyped virus. As to the kind of experiment: microbe, parasite or virus in culture. Format: cell-based. The settings on record: 293T-ACE2 cells.
Data set [7] concerns Omicron BA.4/BA.5 spike-pseudotyped virus. As to the kind of experiment: microbe, parasite or virus in culture. Format: cell-based. Particulars: 293T-ACE2 cells.
In data set [8] the test system is D614G spike-pseudotyped virus in 293T-ACE2 cells. The data set is classed as cell-based. Particulars: 5 µM, 2 h infection with D614G spike-pseudotyped virus.
The subject of data set [9] is murine leukemia virus envelope (MLV-env) pseudotyped virus. As to the kind of experiment: microbe, parasite or virus in culture. Particulars: spike protein replaced with MLV-env, marked ** in Table 1. The data set is classed as cell-based.
[10] abbreviates: Severe acute respiratory syndrome coronavirus 2.

Read-outs that look alike come from different tables or passages of the source. Bounds are passed on as bounds.

T2 sequence (P07711 114-333): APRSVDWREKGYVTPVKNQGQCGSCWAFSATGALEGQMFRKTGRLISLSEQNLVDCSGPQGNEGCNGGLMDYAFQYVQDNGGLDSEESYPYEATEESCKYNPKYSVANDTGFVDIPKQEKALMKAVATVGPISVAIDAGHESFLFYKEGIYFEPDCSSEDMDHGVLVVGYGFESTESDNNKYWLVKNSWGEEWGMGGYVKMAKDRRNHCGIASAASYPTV

In the case of `C1=C2CCCN[C@H]2[C@@H]2C[C@H]1[C@H]1CCCCN1C2` [Aloperine, aloperine, reference compound], in “in vitro”, the cytotoxic concentration (CC50) was over 20 µM. The “Inhibitory activity against cathepsin B” value at cathepsin B is “inactive”. Further, at cathepsin L, the “Inhibitory activity against cathepsin L” value was “inactive”. Besides, the IC50 in data set [1] was 14.5 µM; in the data set with HIV-1NL4-3-nanoluc-sec [2], 1750 nM.
Consider `O=C(NCCCCCCN1CCCC2CC3CC(CN4CCCCC34)C21)c1c(F)cc(Br)cc1F` (centres unmarked) [Compound 1], for which the CC50 in the data set “in vitro” is over 20 µM. For the same compound, the values for the IC50 (in [1]; in the data set on HIV-1NL4-3-nanoluc-sec [2]) were 0.091 µM and over 20000 nM, respectively.
As to `Fc1ccc(CNCCCCN2CCCC3=CC4CC(CN5CCCCC45)C32)cc1` (centres unmarked) [Compound 9], in “in vitro”, the CC50 was over 10 µM. In data set [3], this compound had an IC50 of 4.8 ± 1.4 µM. In addition, the “IC50, HIV-1NL4-3-nanoluc-sec” value in the data set with HIV-1NL4-3-nanoluc-sec [4] is recorded as “Inac ^8”.
For the compound `CCOC(=O)[C@H]1O[C@@H]1C(=O)N[C@@H](CC(C)C)C(=O)NCCC(C)C` [Compound E64D, E64D, reference compound], the 50% inhibitory concentration (IC50) is 450 ± 82 nM in data set [5], 370 ± 66 nM in data set [6] and 340 ± 81 nM in data set [7].
In the data set “in vitro”, `O=C(NCCCCCCCC(=O)N1CCCC2=CC3CC(CN4CCCCC34)C21)c1ccc(OC(F)(F)F)cc1` (centres unmarked) [Compound 8] had a CC50 of over 20 µM. Further, in data set [1], the IC50 is over 28.5 µM and the “IC50, PA/Puerto Rico/8/1934 Influenza A Virus (PR8)” value (“IC50 … (PR8)” below) was “inactive”. Besides, in the data set on HIV-1NL4-3-nanoluc-sec [2], the IC50 is over 20000 nM and the “IC50, HIV-1NL4-3-nanoluc-sec” value was “inactive”.
Turning to `CCN(CC)CCCC(C)Nc1ccnc2cc(Cl)ccc12` (centres unmarked) [Chloroquine diphosphate, reference compound], in [8], the “Spike protein (virus) puncta in 293T-ACE2 cells under confocal microscope” value is “no accumulation of viral puncta”.
Regarding `O=C(NCCN1CCCC2=CC3CC(CN4CCCCC34)C21)c1ccccc1F` (centres unmarked) [Compound 2], the 50% inhibitory concentration (IC50) in data set [1] is 5.5 µM; in the data set with HIV-1NL4-3-nanoluc-sec [2], over 25000 nM.
In “in vitro”, `CC(C)(C)c1ccc(C(=O)NCCCCCCN2CCCC3=CC4CC(CN5CCCCC45)C32)cc1` (centres unmarked) [Compound 7] had a CC50 of over 20 µM. In addition, the results for the IC50 (in data set [1]; with HIV-1NL4-3-nanoluc-sec [2]) were 0.83 µM and 800 nM, respectively.
Consider `C1=C2CCCN(CCCCNCc3ccccc3)C2C2CC1C1CCCCN1C2` (centres unmarked) [Compound 5], for which the CC50 in the data set “in vitro” is over 20 µM. Further, the IC50 in data set [9] (Murine leukemia virus, read-out: Antiviral activity (IC50) against MLV-env pseudotyped virus) was over 20 µM; in data set [5] (setting [10]), 580 ± 150 nM; in data set [6] (setting [10]), 830 ± 210 nM; in data set [7] (setting [10]), 860 ± 250 nM; in data set [1], over 40 µM; with HIV-1NL4-3-nanoluc-sec [2] it was 960 nM. For the same compound, the “Antiviral activity (IC50) against MLV-env pseudotyped virus” value in data set [9] is “inactive”. Also, the entries for the “Inhibitory activity against cathepsin B” value at cathepsin B and on cathepsin B (listed as compound 5) were “totally inactive” and “did not inhibit”, respectively. Besides, the entries for the “Inhibitory activity against cathepsin L” value on cathepsin L and at cathepsin L (listed as compound 5) were “totally inactive” and “did not inhibit”, respectively. Also, in data set [8], the “Spike protein (virus) puncta in 293T-ACE2 cells under confocal microscope” value is given as “observed as puncta”. The “IC50 … (PR8)” value in data set [1] is “ineffective”.
With `CC(C)C[C@H](NC(=O)[C@H]1O[C@@H]1C(=O)O)C(=O)NCCCCN=C(N)N` [Compound E64, E64, reference compound], the “Inhibition of enzyme activity (cathepsin B)” value on cathepsin B (at 0.1 µM) is listed as “more than 95%”.
`COc1ccc(C(=O)NCCCCN2CCCC3=CC4CC(CN5CCCCC45)C32)cc1` (centres unmarked) [Compound 6] registered a CC50 in “in vitro” of over 20 µM. For the same compound, the results for the 50% inhibitory concentration (IC50) (in [1]; in the data set on HIV-1NL4-3-nanoluc-sec [2]) were over 20 µM and 11400 nM, respectively.
In turn, `O=C(Cc1ccc(S(=O)(=O)C(F)(F)F)cc1)NCCCCN1CCCC2=CC3CC(CN4CCCCC34)C21` (centres unmarked) [Compound 3] came in with a half-maximal cytotoxic concentration (CC50) in the data set “in vitro” of over 20 µM. Further, in [1], the half-maximal inhibitory concentration (IC50) was over 20 µM and the “IC50 … (PR8)” value is “without anti-influenza virus activity”. Also, in the data set on HIV-1NL4-3-nanoluc-sec [2], the IC50 is 120 nM.
As for `C1=C2CCCN(CCCCCNCc3ccccc3)C2C2CC1C1CCCCN1C2` (centres unmarked) [Compound 4], in “in vitro”, the CC50 was over 20 µM. For the same compound, the concentration for half-maximal inhibition (IC50) in data set [1] was over 40 µM; with HIV-1NL4-3-nanoluc-sec [2] it was 840 nM.

The CC50 is the concentration at which the toxic effect on the cells reaches its halfway point. Low values mean greater toxicity to the cells, high ones lower toxicity to the cells. The term IC50 denotes the concentration needed to halve the response being measured.

(Values after article PMC9455918, “Quinolizidines as Novel SARS-CoV-2 Entry Inhibitors” (International Journal of Molecular Sciences, 2022).)
